Each structure is given as a SMILES string.

For series [1], the system named is KB-V1 cells. Briefly: MTS cytotoxicity test procedure with KB-V1 cells. The note with it: Homo sapiens, KB-V1; MTS assay, KB VI cells, means of 2 independent experiments. Format: cell-based, human. From the text: (§1) Human cancer cell lines, unless otherwise noted, are obtained from the American Type Culture Collection (Rockville, Md.). The following drug-sensitive parental cell lines, and their derived drug-resistant counterparts, are obtained from the originators as listed: (a) S1 (parental line from a subclone of human colon carcinoma line LS174T) and derived S1-M1-3.2 (herein called S1-M1) which expresses the MXR drug transporter protein, are provided by Dr. L. Greenberger, Wyeth Research (Rabindran, S. K., He, H., Singh, M., Brown, E., Collins, K. I., Annable, T., and Greenberger, L. M. Reversal of a novel multidrug resistance mechanism in human colon carcinoma cells by fumitremorgin C. Cancer Res., 58: 5850-5858,1998); (b) parental HL-60 human promyelocytic leukemia line and derived HL-60/ADR, which expresses the MRP1 drug transporter protein, are provided by Dr. M. Center, University of Kansas (McGrath, T., and Center, M. S. Adriamycin resistance in HL60 cells in the absence of detectable P-glycoprotein. Biochem. Biophys. […] J. Biol. Chem., 261: 7762-7770, 1986) via Dr. L. Greenberger, Wyeth Research.
The MTS assay, which is sold in kit form by Promega (Madison, Wis.; CellTiter 96 AQueous Non-Radioactive Cell Proliferation Assay), is based on the conversion by viable cells, but not by dead cells, of the tetrazolium salt, MTS (3-(4,5-dimethylthiazol-2-yl)-5-(3-carboxymethoxyphenyl)-2-(4-sulphophenyl)-2H-tetrazolium, inner salt), into a water-soluble colored formazan which is detected by spectrophotometry. Compounds are tested at nine concentrations, in order to determine IC50 values. For the test procedure, cells are harvested by trypsinization (or, in the case of non-adherent cells, by simple resuspension), washed, counted and distributed to wells of 96-well flat-bottom microtiter plates at 1000 cells per well in 200 μL of medium. […]
(§2) After three days of culture with test compounds (day 5 overall), the MTS assay is done on all wells of the experimental plates. The absorbance values of the quadruplicate sample wells are averaged and divided by the average of the “time 0” values. […]

For series [2], the system named is HL-60/ADR cells. Briefly: MTS cytotoxicity test procedure with HL-60/ADR cells. The format is cell-based, human. Conditions: Homo sapiens, HL60/ADR; MTS assay, HL-60/ADR cells, means of 2 independent experiments.
Text: as §1
(§3) The MTS assay, which is sold in kit form by Promega (Madison, Wis.; CellTiter 96 AQueous Non-Radioactive Cell Proliferation Assay), is based on the conversion by viable cells, but not by dead cells, of the tetrazolium salt, MTS (3-(4,5-dimethylthiazol-2-yl)-5-(3-carboxymethoxyphenyl)-2-(4-sulphophenyl)-2H-tetrazolium, inner salt), into a water-soluble colored formazan which is detected by spectrophotometry. Compounds are tested at nine concentrations, in order to determine IC50 values. For the test procedure, cells are harvested by trypsinization (or, in the case of non-adherent cells, by simple resuspension), washed, counted and distributed to wells of 96-well flat-bottom microtiter plates at 1000 cells per well in 200 μL of medium. In addition, one row of wells on a separate plate receives cells as above (“time 0” plate). All plates are incubated at 370 in humidified 5% CO2 in air for about 24 hr.
(§4) On day 2, compounds for test are diluted and added to wells. Compounds are dissolved in DMSO at 10 mg/mL. For each compound, nine serial 2-fold dilutions are prepared in DMSO. Ten μL of each dilution in DMSO is transferred to 100 μL of medium, mixed well, and then 5 μL of this dilution is transferred in quadruplicate to wells containing cells. […] Plates are returned to the incubator for three days. At the time of drug addition to the experimental plates, the MTS assay is run on the “time 0” plate.
After three days of culture with test compounds (day 5 overall), the MTS assay is done on all wells of the experimental plates. The absorbance values of the quadruplicate sample wells are averaged and divided by the average of the “time 0” values. […] The nine values for each compound are plotted against concentration, and the concentration that produces a relative color yield half way between the maximum and minimum is taken as the IC50 value.
HL-60/ADR cells overexpress the multidrug resistance protein MRP1 which mediates resistance to some chemotherapeutics (Gottesman, M. M., Fojo, T., and Bates, S. E. Multidrug resistance in cancer: role of ATP-dependent transporters. Nature Rev. Cancer, 2: 48-58, 2002). The IC50 values of example 6 of this invention, as well as reference compounds, on HL-60/ADR are compared to values on the sensitive parental HL-60 line.
For orientation: Tetrazolium dyes change colour on reduction, which living cells bring about.

Series [3] deals with COLO 205 cells. Briefly: MTS cytotoxicity test procedure with COLO 205 cells. Format: cell-based. Conditions: Homo sapiens, 72 h, MTS assay, three days of culture. The method, then:
as §3
On day 2, compounds for test are diluted and added to wells. Compounds are dissolved in DMSO at 10 mg/mL. For each compound, nine serial 2-fold dilutions are prepared in DMSO. Ten μL of each dilution in DMSO is transferred to 100 μL of medium, mixed well, and then 5 μL of this dilution is transferred in quadruplicate to wells containing cells. The final high concentration of each compound is typically 1-5 μM. Plates are returned to the incubator for three days. At the time of drug addition to the experimental plates, the MTS assay is run on the “time 0” plate. This gives the “time 0 MTS value” which is related to the number of viable cells per well at the time of drug addition.
After three days of culture with test compounds (day 5 overall), the MTS assay is done on all wells of the experimental plates. The absorbance values of the quadruplicate sample wells are averaged and divided by the average of the “time 0” values. The average of control wells without drug, divided by the average “time 0” value, gives the maximal relative increase in MTS color yield due to cell growth during the final three days of culture. The average of control wells with high drug concentration, divided by the “time 0” value, gives the minimal relative color yield for cells that were completely killed. The nine values for each compound are plotted against concentration, and the concentration that produces a relative color yield half way between the maximum and minimum is taken as the IC50 value.
COLO 205 is a human colon carcinoma cell line that is used for comparative testing of the examples of this invention and several reference compounds (Table 1). This line is sensitive to paclitaxel and vincristine.

The test system of series [4] is S1-M1 cells. Briefly: MTS cytotoxicity test procedure with S1-M1 cells. Conditions: Homo sapiens; MTS assay, S1-M1 cells, means of 2 independent experiments. Format: cell-based, human.
Text: as §1, §3, §4, §2

For series [5], the system named is MAP-rich tubulin. The experiment in a line: Tubulin polymerization test procedure with MAP-rich tubulin. Conditions: MAP-rich tubulin with 1 mM GTP, compound 0.3 μM, at 20 min. Format: biochemical, bovine. The method, then:
(§5) Medium is RPMI-1640 with L-glutamine, supplemented with 10% heat-inactivated fetal calf serum, 100 units/mL penicillin, and 100 μg/mL streptomycin (Gibco, Grand Island, N.Y.). Microtubule-associated protein (MAP)-rich tubulin, containing about 70% tubulin and 30% MAPs (#ML113), and highly purified tubulin (>99% pure, #TL238), both from bovine brain, are obtained from Cytoskeleton, Inc., Denver, Colo. PEM buffer (80 mM piperazine-N,N′-bis[2-ethanesulfonic acid], pH 6.9, 1 mM ethylene glycol-bis(β-aminoethyl ether)-N,N,N′,N′-tetraacetic acid, 1 mM magnesium chloride) and guanosine 5′-triphosphate (GTP) are also obtained from Cytoskeleton. [^3H]paclitaxel, specific activity 14.7 Ci/mmol, is purchased from Moravek Biochemicals (Brea, Calif.). [^3H]vinblastine, specific activity 9.60 Ci/mmol and MicroSpin G-50 columns are obtained from Amersham Biosciences (Piscataway, N.J.). […] Other reagents are obtained from Sigma (St. Louis, Mo.).
MAP-rich tubulin is dissolved in ice-cold PEM buffer containing 1 mM GTP (GPEM buffer) at a concentration of 1.3 mg/mL. The solution is centrifuged at top speed in an Eppendorf model 5415C microcentrifuge (Brinkmann Instruments, Westbury, N.Y.) for 10 min at 40 immediately before use. The tubulin solution is added to wells of a ½-area 96-well plate (Costar No. 3696, Corning, Inc., Corning, N.Y.) already containing the compounds of interest. Each compound is tested in duplicate at a final concentration of 0.3 μM in a volume of 110 μL per well. The final DMSO concentration in all wells is 0.3%. Control reactions, which receive compound solvent only, are done in quadruplicate. The plate is put in a SpectraMax Plus plate reader (Molecular Devices Corp. Sunnyvale, Calif.) thermostated at 240 and the absorbance of each well at 340 nm, a measure of the appearance of turbidity due to tubulin polymer formation, is determined every minute for 60 minutes. The absorbance at time 0 for each well is subtracted from each of the subsequent absorbance readings for that well, and then the duplicates are averaged.
In this assay, control reactions with MAP-rich tubulin show an S-shaped absorbance profile characterized by three phases: first, a lag phase during which no change in absorbance occurs; second, a polymerization phase in which absorbance increases; and third, a plateau phase in which absorbance has reached a maximum and little or no further change occurs. Polymerization enhancers such as paclitaxel and docetaxel shorten or eliminate the lag phase, increase the rate of the polymerization phase, and often increase the height of the plateau. […] This has been expressed quantitatively in Table 6 by dividing the mean A340 of each sample at 20 min by the mean A340 of the control at 20 min to give a fold enhancement over control. […]

Series [6] concerns pure tubulin. Briefly: Tubulin polymerization test procedure with pure tubulin. Format: biochemical, bovine. The note with it: pure tubulin without added GTP. As to the method:
as §5
The procedure with pure tubulin is similar except for the following changes. […] The supernatant after centrifugation is dispensed to a ½-area 96-well plate already containing compounds. Each compound is tested in duplicate at a final concentration of 24.3 μM. The plate reader μs thermostated at 35°.

For the molecule `O=C1c2c(O)ccc(O)c2C(=O)c2c(NCCNCCO)ccc(NCCNCCO)c21` [Mitoxantrone, reference compound], the IC50 in series [1] amounted to 1930 nM; in series [2] it was 161 nM.
`Fc1cc(F)c(-c2c(Cl)nc3nccn3c2N2CCCCCC2)c(F)c1` [Example 1, 5-azepan-1-yl-7-chloro-6-(2,4,6-trifluorophenyl)imidazo[1,2-a]pyrimidine]: the melting point fell in the range of 106 to 108 °C. The molecule also registered an IC50 in series [3] of 259 nM.
With `COc1cccc2c1C(=O)c1c(O)c3c(c(O)c1C2=O)C[C@@](O)(C(=O)CO)C[C@@H]3O[C@H]1C[C@H](N)[C@H](O)[C@H](C)O1` [Doxorubicin, reference compound], the IC50 in series [2] worked out at 2080 nM; in series [4], 2520 nM.
Consider `Fc1cc(F)c(-c2c(Cl)nc3nccn3c2NCC(F)(F)F)c(F)c1` [Example 3, 7-chloro-N-(2,2,2-trifluoroethyl)-6-(2,4,6-trifluorophenyl)imidazo[1,2-a]pyrimidin-5-amine], for which the melting point was 155 to 157 °C. In series [3], this molecule registered an IC50 of 742 nM.
As to `CC(=O)O[C@@]12CO[C@@H]1C[C@H](O)[C@@]1(C)C(=O)[C@H](O)C3=C(C)[C@@H](OC(=O)[C@H](O)[C@@H](NC(=O)OC(C)(C)C)c4ccccc4)C[C@@](O)([C@@H](OC(=O)c4ccccc4)[C@H]21)C3(C)C` [Docetaxel, reference compound], in series [5], the “A340 Compound / A340 Control (fold enhancement over control)” value turned out to be 5.4. Moreover, the “polymerization of pure tubulin without GTP (in words)” value in series [6] is listed as “able to induce polymerization”.
`Fc1cc(F)c(-c2c(Cl)nc3nccn3c2N2CCCCC2)c(F)c1` [Example 2, 7-Chloro-5-piperidin-1-yl-6-(2,4,6-trifluorophenyl)imidazo[1,2-a]pyrimidine] displayed an IC50 in series [3] of 396 nM.
Same read-out and setting: to `Fc1cc(F)c(-c2c(Cl)nc3nccn3c2C2CCCCCC2)c(F)c1` [Example 5, 7-Chloro-5-cycloheptyl-6-(2,4,6-trifluorophenyl)imidazo[1,2-a]pyrimidine] belongs 207 nM.

As usually defined, the IC50 is the concentration at which inhibition is half-maximal. By melting point is commonly meant the temperature, or range, at which the solid turns liquid.

The record behind these values is patent US7285555B2, “6-aryl-7-halo-imidazo[1,2-a]pyrimidines as anticancer agents” (Wyeth Holdings Corporation, priority 2003, dated 2007).
